According to US11006626B2, “Compounds for protection of cells” (Sulfateq B.V., priority 2012, dated 2021):

Legend:
apherese blood platelets = experiment: Apheresis platelets stored with Sul 136, platelet aggregation (Platelet Aggregation Profiler PAP 8); type: cell-based; conditions: for Platelet aggregation ADP (%) / Platelet aggregation Collagen (%): stored at 4° C. with Sul 136
Method: 300 μM suspension of Sul 136 is added with a procedure, which keeps the bag content sterile and the Sul 136 is kept in suspension by frequent whirling and stored at 37° C. before it is added to the freshly harvested platelets. The Sul 136 suspension is added to three platelet bags directly from the bag. After addition, the content of the platelet bag is gently mixed. After 2 hours the first sample is drawn with a seal-docked sample bag. The sample bag is disconnected by welding and from this sample bag the samples are taken for hematology analyzing, aggregometer tests and the flow-cytometry tests. Swirling in the bag is reported by experience of the laboratory worker in the standard format. Platelets without Sul 136 put on a flatbed shaker and stored at room temperature were used as control. Another control is stored at 4° C. Platelet samples in which Sul 136 is added, are stored without shaking in a refrigerator at 4° C.
Platelet aggregation was measured according to Platelet Aggregation Profiler PAP 8 (Mölab) using all reagents from Mölab.
3 ml platelet concentrate was centrifuged at 3000 RPM to get PPP. 1800 μl PPP and 600 μl PRP were mixed.
225 μl PRP was brought in test tube with magnetic stirrer. 225 μl PPP+25 μl aquadest was brought in test tube without magnetic stirrer. PPP was used for basis. PRP was put during 2 min at 37° C. on a roller. Measurement with PRP in aggregometer was started after 30 seconds with 25 μl inductor. Measurement was performed during 6 min.

blood platelets = experiment: Cold storage of PRP blood platelets, aggregation of thrombocytes after storage; type: cell-based; design: key: − means that most of the thrombocytes were aggregated; a + indicates that a few cells were still viable but some cells aggregated; a ++ indicates that almost all cells were viable; conditions: 30 mM; PRP platelets stored at 4° C.; 264 hours
Method: PRP platelets were harvested and 2.1 ml was suspended in Poly Propylene tubes of 5 ml, closed with a stop.
Several compounds according to the invention were added to the blood platelets directly after preparing the PRP plasma and incubated during 10 minutes at 37° C. or 30 minutes at room temperature. The blood platelets with the compound were then stored at 4° C.
A control was stored under shaking conditions at room temperature. Another control was stored at 4° C. without the addition of a compound.
A sample was taken out of each tube after 264 hours after addition of the compound and tested as follows: • The color and coagulation properties were visually analysed. • The thrombocyte cells that survived were counted and it was evaluated whether the thrombocytes were aggregated. • It was evaluated if the thrombocytes still were able to function after stimulation by the addition of ADP or under influence of collagen in a 96 well plate. • The adhesion was evaluated, meaning the ability of the platelets to bind collagen in a 6 well plate preincubated with collagen. • Via an ELISA assay, it was evaluated whether thromboxane was secreted from the platelets. Thromboxane facilitates aggregation and is produced by activated blood platelets.
Table 3 provides an overview of the results of the addition of the compounds to the blood platelets and evaluates the aggregation of the thrombocytes after addition of the compound according to the invention and cooling until 4° C.

Cc1c(C)c2c(c(C)c1O)CCC(C)(C(=O)N1CCN(CC(=O)O)CC1)O2 (racemic) [SUL - 136, 2-(4-(6-hydroxy-2,5,7,8-tetramethylchroman-2-carbonyl)piperazin-1-yl)acetic acid]
Platelet aggregation ADP (%) (apherese blood platelets; Donor 2, Day 1): 0% | Platelet aggregation Collagen (%) (apherese blood platelets; Donor 2, Day 1): 0% | Platelet aggregation ADP (%) (apherese blood platelets; Donor 2, Day 2): 0% | Platelet aggregation Collagen (%) (apherese blood platelets; Donor 2, Day 2): 0% | Platelet aggregation ADP (%) (apherese blood platelets; Donor 2, Day 3): 0% | Platelet aggregation Collagen (%) (apherese blood platelets; Donor 2, Day 3): 4% | Platelet aggregation ADP (%) (apherese blood platelets; Donor 2, Day 5): 0% | Platelet aggregation Collagen (%) (apherese blood platelets; Donor 2, Day 5): 0% | Platelet aggregation ADP (%) (apherese blood platelets; Donor 2, Day 8): 0% | Platelet aggregation Collagen (%) (apherese blood platelets; Donor 2, Day 8): 0% | Platelet aggregation ADP (%) (apherese blood platelets; Donor 2, Day 10): 0% | Platelet aggregation Collagen (%) (apherese blood platelets; Donor 2, Day 10): 0% | Platelet aggregation ADP (%) (apherese blood platelets; Donor 2, Day 12): 0% | Platelet aggregation Collagen (%) (apherese blood platelets; Donor 2, Day 12): 5% | Platelet aggregation ADP (%) (apherese blood platelets; Donor 2, Day 19): 0% | Platelet aggregation Collagen (%) (apherese blood platelets; Donor 2, Day 19): 0% | Platelet aggregation ADP (%) (apherese blood platelets; Donor 3, Day 1): 0% | Platelet aggregation Collagen (%) (apherese blood platelets; Donor 3, Day 1): 0% | Platelet aggregation ADP (%) (apherese blood platelets; Donor 3, Day 2): 0% | Platelet aggregation Collagen (%) (apherese blood platelets; Donor 3, Day 2): 0% | Platelet aggregation ADP (%) (apherese blood platelets; Donor 3, Day 3): 0% | Platelet aggregation Collagen (%) (apherese blood platelets; Donor 3, Day 3): 0% | Platelet aggregation ADP (%) (apherese blood platelets; Donor 3, Day 5): 6% | Platelet aggregation Collagen (%) (apherese blood platelets; Donor 3, Day 5): 0% | Platelet aggregation ADP (%) (apherese blood platelets; Donor 3, Day 8): 0% | Platelet aggregation Collagen (%) (apherese blood platelets; Donor 3, Day 8): 0% | Platelet aggregation ADP (%) (apherese blood platelets; Donor 3, Day 10): 0% | Platelet aggregation Collagen (%) (apherese blood platelets; Donor 3, Day 10): 0% | Platelet aggregation ADP (%) (apherese blood platelets; Donor 3, Day 12): 0% | Platelet aggregation Collagen (%) (apherese blood platelets; Donor 3, Day 12): 8% | Platelet aggregation ADP (%) (apherese blood platelets; Donor 3, Day 19): 0% | Platelet aggregation Collagen (%) (apherese blood platelets; Donor 3, Day 19): 0% | platelet aggregation upon stimulation with collagen and ADP (apherese blood platelets; donor 1, day 12 and day 19, stored at 4° C.): restored | Platelet aggregation ADP (%) (apherese blood platelets; donor 1, Day 1): 0% | Platelet aggregation Collagen (%) (apherese blood platelets; donor 1, Day 1): 0% | Platelet aggregation ADP (%) (apherese blood platelets; donor 1, Day 2): 0% | Platelet aggregation Collagen (%) (apherese blood platelets; donor 1, Day 2): 0% | Platelet aggregation ADP (%) (apherese blood platelets; donor 1, Day 3): 0% | Platelet aggregation Collagen (%) (apherese blood platelets; donor 1, Day 3): 0% | Platelet aggregation ADP (%) (apherese blood platelets; donor 1, Day 5): 0% | Platelet aggregation Collagen (%) (apherese blood platelets; donor 1, Day 5): 0% | Platelet aggregation ADP (%) (apherese blood platelets; donor 1, Day 8): 0% | Platelet aggregation Collagen (%) (apherese blood platelets; donor 1, Day 8): 0% | Platelet aggregation ADP (%) (apherese blood platelets; donor 1, Day 10): 0% | Platelet aggregation Collagen (%) (apherese blood platelets; donor 1, Day 10): 0% | Platelet aggregation ADP (%) (apherese blood platelets; donor 1, Day 12): 12% | Platelet aggregation Collagen (%) (apherese blood platelets; donor 1, Day 12): 17% | Platelet aggregation ADP (%) (apherese blood platelets; donor 1, Day 19): 31% | Platelet aggregation Collagen (%) (apherese blood platelets; donor 1, Day 19): 32% | Aggregation of blood platelets after storage (blood platelets): +
